How the values were obtained:
Assay in all cases: relative viability (nuclei count vs DMSO), 5 days (fraction); higher = more cells survive
BI-D1870 + AZD7762 = compound: CC(C)CCN1c2nc(Nc3cc(F)c(O)c(F)c3)ncc2N(C)C(=O)C1C [BI-D1870] + NC(=O)Nc1cc(-c2cccc(F)c2)sc1C(=O)N[C@H]1CCCNC1 [AZD7762] (partner 0.2 µM)
In short: (§1)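 Relative viability is defined as nuclei in treated wells over nuclei in vehicle wells. Duplicate plates were run and medians reported. Lung cancer cell lines in 1536-well plates were dosed by pin tool one day after seeding, with one drug or with a fixed anchor-drug dose plus five library-drug doses (not always all listed) in √10 steps, and nuclei were counted after 5 days.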

Zebularine + Phenformin = compound: O=c1ncccn1[C@@H]1O[C@H](CO)[C@@H](O)[C@H]1O [Zebularine] + N=C(N)NC(=N)NCCc1ccccc1 [Phenformin] (partner 250 µM)
In short: as §1

BI-D1870 + Tozasertib = compound: CC(C)CCN1c2nc(Nc3cc(F)c(O)c(F)c3)ncc2N(C)C(=O)C1C [BI-D1870] + Cc1cc(Nc2cc(N3CCN(C)CC3)nc(Sc3ccc(NC(=O)C4CC4)cc3)n2)n[nH]1 [Tozasertib] (partner 0.1 µM)
In short: as §1

BI-D1870 + Pemetrexed = compound: CC(C)CCN1c2nc(Nc3cc(F)c(O)c(F)c3)ncc2N(C)C(=O)C1C [BI-D1870] + Nc1nc2[nH]cc(CCc3ccc(C(=O)N[C@@H](CCC(=O)O)C(=O)O)cc3)c2c(=O)[nH]1 [Pemetrexed] (partner 0.2 µM)
In short: as §1

Cell Line	relative viability (BI-D1870 + AZD7762; first compound 0.04 µM)	relative viability (BI-D1870 + AZD7762; first compound 0.1265 µM)	relative viability (BI-D1870 + AZD7762; first compound 0.4 µM)	relative viability (BI-D1870 + AZD7762; first compound 1.265 µM)	relative viability (BI-D1870 + AZD7762; first compound 4 µM)	relative viability (Zebularine + Phenformin; first compound 1 µM)	relative viability (Zebularine + Phenformin; first compound 3.162 µM)	relative viability (Zebularine + Phenformin; first compound 10 µM)	relative viability (Zebularine + Phenformin; first compound 31.62 µM)	relative viability (Zebularine + Phenformin; first compound 100 µM)	relative viability (BI-D1870 + Tozasertib; first compound 0.04 µM)	relative viability (BI-D1870 + Tozasertib; first compound 0.1265 µM)	relative viability (BI-D1870 + Tozasertib; first compound 0.4 µM)	relative viability (BI-D1870 + Tozasertib; first compound 1.265 µM)	relative viability (BI-D1870 + Tozasertib; first compound 4 µM)	relative viability (BI-D1870 + Pemetrexed; first compound 0.04 µM)	relative viability (BI-D1870 + Pemetrexed; first compound 0.1265 µM)	relative viability (BI-D1870 + Pemetrexed; first compound 0.4 µM)	relative viability (BI-D1870 + Pemetrexed; first compound 1.265 µM)	relative viability (BI-D1870 + Pemetrexed; first compound 4 µM)
LK-2	0.509	0.473	0.374	0.536	0.263	0.759	0.355	0.289	0.372	0.259	0.146	0.175	0.172	0.175	0.148	0.253	0.352	0.31	0.306	0.282
LOU-NH91	0.846	0.755	0.73	0.804	0.624	0.674	0.717	0.437	0.693	0.549	0.688	0.536	0.695	0.586	0.405	0.355	0.372	0.329	0.386	0.344
LU99A	0.414	0.3	0.429	0.655	0.49	0.856	0.831	0.551	0.558	0.208	0.274	0.253	0.273	0.316	0.25	0.178	0.2	0.171	0.183	0.135
LXF-289	1.08	1.04	1.07	1.06	0.943	0.512	0.503	0.41	0.406	0.26	0.173	0.211	0.191	0.183	0.195	0.959	0.857	0.876	0.877	0.764
NCI-H23	0.337	0.224	0.23	0.192	0.243	0.847	0.821	0.423	0.75	0.77	0.433	0.26	0.267	0.314	0.214	1.12	0.585	0.602	0.684	0.316
NCI-H322M	0.591	0.558	0.611	0.684	0.656	0.816	0.747	0.568	0.73	0.671	0.494	0.508	0.456	0.495	0.41	0.632	0.564	0.596	0.59	0.517
NCI-H358	0.551	0.566	0.52	0.594	0.492	0.354	0.261	0.209	0.227	0.154	0.124	0.0956	0.118	0.127	0.113	0.184	0.168	0.153	0.164	0.164
NCI-H441	1.29	1.09	1.03	1.09	1.1	0.803	0.73	0.366	0.309	0.396	0.56	0.531	0.59	0.504	0.407	0.262	0.279	0.245	0.237	0.265
NCI-H460	0.702	0.621	0.566	0.993	0.829	0.601	0.592	0.364	0.127	0.0588	0.467	0.0966	0.104	0.0609	0.0499	0.0638	0.0586	0.0621	0.0582	0.0624
NCI-H522	0.84	0.845	0.851	0.935	0.911	0.589	0.631	0.622	0.656	0.65	0.559	0.648	0.583	0.505	0.533	1.24	1.01	0.978	1	0.984
NCI-H596	1.23	0.9	1.04	1.16	0.933	0.844	0.817	0.579	0.776	0.807	0.953	0.82	0.901	0.81	0.905	0.458	0.47	0.45	0.576	0.454
NCI-H647	0.432	0.502	0.494	0.611	0.479	0.539	0.48	0.178	0.22	0.12	0.399	0.251	0.442	0.385	0.138	0.155	0.162	0.192	0.218	0.127
NCI-H650	1.14	0.83	0.897	1.17	0.778	0.454	0.45	0.409	0.295	0.285	0.752	0.677	0.689	0.588	0.265	0.848	0.837	0.96	0.896	0.802
NCI-H838	0.994	0.909	0.893	1.04	0.947	0.695	0.668	0.549	0.509	0.285	0.283	0.265	0.243	0.251	0.22	0.267	0.249	0.31	0.248	0.262
NCI-H1355	0.954	0.732	0.7	0.849	0.551	0.507	0.45	0.425	0.403	0.294	0.598	0.528	0.498	0.374	0.384	1.04	0.998	1.03	1.15	0.963
NCI-H1395	0.398	0.374	0.42	0.427	0.454	0.455	0.454	0.398	0.361	0.372	0.818	0.685	0.718	0.72	0.721	0.882	0.735	0.848	0.95	0.86

Source: the supplement of paper PMC10307832
